These results are taken from ChEMBL document CHEMBL3046429, “Synthesis, molecular modeling study, preliminary antibacterial, and antitumor evaluation of N-substituted naphthalimides and their structural analogues” (2013).

The term MIC denotes the lowest concentration found to suppress growth.

Converted amounts (≈) assume the structure as drawn. Some results are limits rather than exact numbers.

Common to all, as to assay type: functional
In one assay the test system is Pseudomonas aeruginosa. The assay can be described thus: Antibacterial activity against Pseudomonas aeruginosa assessed as growth inhibition after 24 hr by two-fold serial dilution method.
The test system of a further assay is Escherichia coli. The experiment in a line: Antibacterial activity against Escherichia coli assessed as growth inhibition after 24 hr by two-fold serial dilution method. The following applies: for MIC: Escherichia coli, 24 h.
In the next assay the test system is Bacillus subtilis. The experiment in a line: Antibacterial activity against Bacillus subtilis assessed as growth inhibition after 24 hr by two fold serial dilution method.
The subject of a further assay is Staphylococcus aureus. The experiment in a line: Antibacterial activity against Staphylococcus aureus assessed as growth inhibition after 24 hr by two fold serial dilution method. The conditions noted are these: for MIC: Staphylococcus aureus, 24 h.

In the case of `O=C(O)c1ccc(N2C(=O)c3cccc4cccc(c34)C2=O)cc1`, the MIC in the assay with Pseudomonas aeruginosa was above 100 µg/mL; in the assay on Escherichia coli it was 3.9 µg/mL (≈ 12.3 µM); with Bacillus subtilis, 2 µg/mL (≈ 6.3 µM); in the assay on Staphylococcus aureus, 1.6 µg/mL (≈ 5.04 µM). The results for the “-logMIC” value in the assay with Escherichia coli and in the assay on Staphylococcus aureus were 4.91 and 5.3, respectively.

Take `COc1cc(N2C(=O)c3cccc4cccc(c34)C2=O)cc(OC)c1OC`: the MIC in the assay on Pseudomonas aeruginosa was above 100 µg/mL; in the assay with Escherichia coli it was 2.5 µg/mL (≈ 6.88 µM); with Bacillus subtilis, 2.2 µg/mL (≈ 6.05 µM); with Staphylococcus aureus, 2 µg/mL (≈ 5.5 µM). Further, the “-logMIC” value with Escherichia coli was determined as 5.16; in the assay on Staphylococcus aureus, 5.26.

Turning to `COc1cc(-n2c(=O)c3ccccc3c3ccccc3c2=O)cc(OC)c1OC`, the MIC in the assay on Pseudomonas aeruginosa was above 100 µg/mL; in the assay with Escherichia coli, 2.5 µg/mL (≈ 6.42 µM); in the assay with Bacillus subtilis it was 2.5 µg/mL (≈ 6.42 µM); in the assay with Staphylococcus aureus it was 2.5 µg/mL (≈ 6.42 µM). The “-logMIC” value with Escherichia coli and in the assay on Staphylococcus aureus was 5.19 each time.

For the molecule `O=c1c2ccccc2c2ccccc2c(=O)n1CCN1CCOCC1`, the MIC in the assay on Pseudomonas aeruginosa, in the assay on Escherichia coli, in the assay with Bacillus subtilis and in the assay with Staphylococcus aureus was above 100 µg/mL each time. For the same molecule, the “-logMIC” value in the assay on Escherichia coli and in the assay on Staphylococcus aureus was 3.52 each time.

As to `COc1cc(OC)c(-n2c(=O)c3ccccc3c3ccccc3c2=O)c(OC)c1`, the MIC with Pseudomonas aeruginosa was above 100 µg/mL; with Escherichia coli it was 2.5 µg/mL (≈ 6.42 µM); with Bacillus subtilis it was 2.5 µg/mL (≈ 6.42 µM); with Staphylococcus aureus, 2.5 µg/mL (≈ 6.42 µM). Moreover, the “-logMIC” value in the assay with Escherichia coli and in the assay on Staphylococcus aureus was 5.19 in each case.

For the molecule `O=C1c2nccnc2C(=O)N1c1ccc([N+](=O)[O-])cc1`, the MIC was above 100 µg/mL in the assay on Pseudomonas aeruginosa, 10.5 µg/mL (≈ 38.9 µM) in the assay on Escherichia coli, 8.5 µg/mL (≈ 31.5 µM) with Bacillus subtilis and 8.9 µg/mL (≈ 32.9 µM) in the assay on Staphylococcus aureus. The “-logMIC” value turned out to be 4.41 in the assay on Escherichia coli and 4.48 with Staphylococcus aureus.

Turning to `COc1cc(OC)c(N2C(=O)c3nccnc3C2=O)c(OC)c1`, the MIC with Pseudomonas aeruginosa was above 100 µg/mL; with Escherichia coli it was 9 µg/mL (≈ 28.5 µM); in the assay on Bacillus subtilis, 9 µg/mL (≈ 28.5 µM); in the assay with Staphylococcus aureus it was 8.7 µg/mL (≈ 27.6 µM). Further, the “-logMIC” value amounted to 4.54 in the assay on Escherichia coli and 4.56 in the assay on Staphylococcus aureus.

As for `Cc1cc(Cl)c(N2C(=O)c3nccnc3C2=O)c(Cl)c1`, the MIC with Pseudomonas aeruginosa stood at 20 µg/mL (≈ 64.9 µM); with Escherichia coli, 6.9 µg/mL (≈ 22.4 µM); with Bacillus subtilis, 20 µg/mL (≈ 64.9 µM); with Staphylococcus aureus, 20 µg/mL (≈ 64.9 µM). Further, the “-logMIC” value with Escherichia coli is reported as 4.65; with Staphylococcus aureus, 4.19.

Consider `O=C1c2cccc3cccc(c23)C(=O)N1CCN1CCOCC1`, for which the MIC in the assay on Pseudomonas aeruginosa, in the assay on Escherichia coli, in the assay on Bacillus subtilis and in the assay with Staphylococcus aureus was above 100 µg/mL throughout. Moreover, the “-logMIC” value in the assay on Escherichia coli and in the assay with Staphylococcus aureus was 3.49 throughout.

As to `O=C1c2cccc3cccc(c23)C(=O)N1CCc1ccccn1`, the MIC in the assay on Pseudomonas aeruginosa, in the assay with Escherichia coli, in the assay on Bacillus subtilis and in the assay with Staphylococcus aureus was above 100 µg/mL each time. Besides, the “-logMIC” value with Escherichia coli and in the assay with Staphylococcus aureus was 3.48 each time.

Regarding `O=C1c2cccc3cccc(c23)C(=O)N1c1ccc([N+](=O)[O-])cc1`, the MIC in the assay with Pseudomonas aeruginosa was above 100 µg/mL; in the assay with Escherichia coli, 4 µg/mL (≈ 12.6 µM); in the assay on Bacillus subtilis, 2.9 µg/mL (≈ 9.11 µM); in the assay with Staphylococcus aureus, 2.9 µg/mL (≈ 9.11 µM). Besides, the “-logMIC” value turned out to be 4.9 in the assay on Escherichia coli and 5.04 in the assay on Staphylococcus aureus.

With `O=C1c2cccc3cccc(c23)C(=O)N1c1ccc([N+](=O)[O-])cc1[N+](=O)[O-]`, the MIC with Pseudomonas aeruginosa was above 100 µg/mL; in the assay on Escherichia coli it was 4 µg/mL (≈ 11 µM); in the assay on Bacillus subtilis, 2.2 µg/mL (≈ 6.06 µM); in the assay with Staphylococcus aureus, 1.8 µg/mL (≈ 4.95 µM). Further, the “-logMIC” value stood at 4.96 with Escherichia coli and 5.31 in the assay on Staphylococcus aureus.

Take `O=C(O)c1ccc(N2C(=O)c3nccnc3C2=O)cc1`: the MIC was above 100 µg/mL with Pseudomonas aeruginosa, 10.9 µg/mL (≈ 40.5 µM) in the assay with Escherichia coli, 8 µg/mL (≈ 29.7 µM) in the assay on Bacillus subtilis and 8.5 µg/mL (≈ 31.6 µM) in the assay with Staphylococcus aureus. Moreover, the entries for the “-logMIC” value in the assay on Escherichia coli and with Staphylococcus aureus were 4.39 and 4.5, respectively.
